The text below walks through data of ChEMBL document CHEMBL3137361, “MMV Box P. falciparum screening”.

The assay has as its system Plasmodium falciparum. Kind of assay: MMV: Growth inhibition of P. falciparum cultures was quantified using a parasite lactate dehydrogenase (LDH) assay. The cultures were diluted to 0.5% parasitemea and 2% hematocrit and subjected to each twofold serial dilutions of the compounds for 72 h (DMSO final concentration, 0.25%). After 72 h, the cultures were frozen. LDH activity of P. falciparum parasites in aliquots of freeze-thawed cultures was spectrophotometrically measured and the IC50s were determined. In kind it is functional, organism-based. The following applies: FCR3, 72 h.
Consider `O=C(Nc1ccc(Cl)c(Cl)c1)Nc1ccc(Cl)c(Cl)c1`, for which the IC50 (commonly the concentration that inhibits the measured activity by half) turned out to be 2020 nM.

Take `OC(CNCC1CCCO1)Cn1c2ccc(Cl)cc2c2cc(Cl)ccc21` (stereo not given): the IC50 was found to be 291 nM.

As to `CCn1nc(-c2ccc(C(=O)OC)cc2)nc2c(=O)n(C)c(=O)nc1-2`, half-maximal inhibition (IC50) was put at 1510 nM.

Compound `CC1(c2ccccc2)Nc2ccccc2-c2nc3ccccc3n21` (stereo not given) came in with a half-maximal inhibitory concentration (IC50) of 394 nM.

With `COc1cccc(C2(C)Nc3ccccc3-c3nc4ccccc4n32)c1` (stereo not given), the 50% inhibitory concentration (IC50) was 388 nM.

`CC(C)(C)CC(C)(C)NCC(O)COc1ccc(Cl)cc1Cl` (stereo not given) displayed a concentration for half-maximal inhibition (IC50) of 544 nM.

Compound `Cc1ccc(Nc2nc(-c3ccccn3)cs2)cc1` registered an IC50 of 1430 nM.

For the compound `OC1=C2C(=Nc3ccccc3SC2c2ccccc2)c2ccccc21` (stereo not given), the IC50 is 337 nM. Against the preceding compound, the IC50 is about 4.2-fold lower.

For `COCCNCC(O)Cn1c2ccc(Cl)cc2c2cc(Cl)ccc21` (stereo not given), half-maximal inhibition (IC50) required 277 nM. This IC50 and that of the compound before are within 1.5-fold of each other.

On to `FC(F)(F)c1cccc(Nc2nc3ccccc3nc2Nc2cccc(C(F)(F)F)c2)c1`, for which it took 1160 nM to reach half-maximal inhibition (IC50). This IC50 is about 4.2-fold higher than that of the compound before.

`CCC(O)c1ccc(Br)cc1NC(=O)c1cccc(Cl)c1` (stereo not given) registered a half-inhibitory concentration (IC50) of 1330 nM.

Turning to `O=c1nc(C=Cc2ccc(Br)cc2)oc2ccccc12`, the IC50 was above 5000 nM.

Take `Brc1ccc(Nc2nc3ccccc3nc2Nc2ccc(Br)cc2)cc1`: the midpoint of inhibition, the IC50, lay at 1560 nM.

In turn, `FC(F)(F)c1cccc(Nc2nc(-c3ccccc3)nc3ncccc23)c1` came in with an IC50 of 905 nM.

In turn, `COc1ccc(C=C2SC(=N)N(c3ccccc3OC)C2=O)cc1` returned an IC50 of 287 nM.

Take `Cc1cc(Nc2ccc(OCc3ccccc3)cc2)nc2cc(O)ccc12`: the half-maximal inhibitory concentration (IC50) came out at 127 nM. Against the preceding compound, the IC50 is about 2.3-fold lower.

For `OCCNc1nc(Nc2ccc(Cl)c(Cl)c2)nc2ccccc12`, the half-maximal inhibitory concentration (IC50) was 274 nM.

The compound `Cc1ccc(C)c(Cn2c(N3CCC(C(=O)NCc4cccs4)CC3)nc3ccccc32)c1` came in with an IC50 of 1810 nM.

Compound `O=C1c2ccccc2C2=Nc3ccccc3SC(c3cccc(F)c3)C12` (stereo not given) came in with an IC50 of 708 nM.

On to `COc1ccccc1NC1=C(N2CCCCC2)C(=O)c2ccccc2C1=O`, for which half-maximal inhibition (IC50) required 50 nM.

With `O=C(Nc1ccc(N2CCCCC2)c(Cl)c1)c1ccc(Br)o1`, the midpoint of inhibition, the IC50, lay at 1090 nM.

As for `OC(CNC1CCCCC1)Cn1c2ccc(I)cc2c2cc(I)ccc21` (stereo not given), the IC50 was 137 nM.

`O=C(Nc1cccc(C(F)(F)F)c1)c1cc(Cl)ccc1O` gave a half-maximal inhibitory concentration (IC50) of 3620 nM.

The compound `CCOc1cccc2sc(N(Cc3cccnc3)C(=O)C3CCCCC3)nc12` registered a half-inhibitory concentration (IC50) above 5000 nM.

For `CCc1ccc(Nc2cc(C)c3ccc(O)cc3n2)cc1`, the IC50 worked out at 76.7 nM.

In turn, `COc1ccc(C(O)(CCC(C)C)C(CN2CCOCC2)c2ccc(Cl)cc2)cc1` (stereo not given) came in with an IC50 above 5000 nM.

On to `O=C(Nc1nc(-c2ccccn2)cs1)c1ccccc1Br`, for which 2720 nM corresponded to half-maximal inhibition (IC50).

The compound `CSc1ccccc1C(=O)Nc1nc(-c2ccccn2)cs1` gave an IC50 of 2160 nM.

For `CC(C)(C)c1ccc2c(c1)CN(Cc1ccc(Cl)cc1)CO2`, half-maximal inhibition (IC50) required 35.5 nM. Compared with the last compound, the IC50 is about 61-fold lower.

Regarding `CCCCC(O)(c1ccc(Cl)cc1)C(CN1CCOCC1)c1ccc(Cl)cc1` (stereo not given), the IC50 was above 5000 nM.

As for `O=c1nc(C=Cc2ccc(Cl)cc2)oc2ccccc12`, the IC50 was above 5000 nM.

In turn, `c1ccc(CNc2nc(Nc3ccccc3)nc3ccccc23)cc1` displayed an IC50 of 430 nM.

In turn, `COc1ccc(Nc2nc(NCc3ccccc3)c3ccccc3n2)cc1` yielded an IC50 of 204 nM.

On to `Oc1c(CN2CCN(c3ccccc3F)CC2)cc(Br)c2cccnc12`, for which half-maximal inhibition (IC50) required 771 nM.

In the case of `OC(CNCc1ccccc1)Cn1c2ccccc2c2ccccc21` (stereo not given), the IC50 was 717 nM.

`CCCCCCC(O)(c1ccc(F)cc1)C(CN1CCOCC1)c1ccccc1` (stereo not given): the IC50 was above 5000 nM.

`COc1ccc(C(=O)C2CC2c2ccc(Cl)cc2)cc1` (stereo not given) registered an IC50 of 2700 nM.

Regarding `COc1ccc2sc(N(Cc3cccnc3)C(=O)c3ccc(C#N)cc3)nc2c1`, the IC50 was above 5000 nM.

`O=C(NCC1Cc2cccc(-c3ccncc3)c2O1)c1csc2c1CCCC2` (stereo not given): the half-maximal inhibitory concentration (IC50) is above 5000 nM.

Compound `CN(C)c1ccc(C(O)(c2ccc(N(C)C)cc2)c2ccc(N(C)C)cc2)cc1` [METHYLROSANILINE] came in with an IC50 of 47.3 nM. This lies in the double-digit nanomolar range.
